In US20260325643A1, “METHOD AND PHARMACEUTICAL COMPOSITION FOR VISIBLE LIGHT-INDUCED CORNEAL CROSSLINKING WITH RUTHENIUM COMPOUNDS FOR THE TREATMENT OF EYE DISORDERS” (KOC UNIVERSITESI, priority 2022, published 2026):

Key:
cornea = conditions: background, cited from earlier work; for hardness / stiffness of cross-linked cornea: Rose Bengal/Green Light (532 nm) or riboflavin/UV-A
[1] = test system: human corneal epithelial cells (HCECs) and limbal mesenchymal stem cells (LMSCs); assay: Cell viability / cytotoxicity, HCECs and LMSCs taken together; assay type: cell-based; conditions: Ruthenium or/and SPS
Excerpt: Furthermore, the cytotoxic effects of Ruthenium and SPS compound on human corneal epithelial cells (HCECs) and limbal mesenchymal stem cells (LMSCs) were investigated to determine the ruthenium concentration and time needed for the cross-linking process. The relative viabilities of cells were detected by CellTiter-Glo® Luminescent Cell Viability Assay (Promega, Mannheim, Germany) detected the relative viabilities of cells, which is a method used to detect the number of viable cells depending on the amount of ATP in alive cells. […] (FIGS. 3A-3B)

LMSCs and HCECs = assay: Annexin V-FITC/PI flow cytometry; assay type: cell-based, human; conditions: 1 hour treatment; compared with ruthenium-SPS treated cells
Procedure: The effects of [Ru(bpy)3]^2+ and SPS solutions on cell viability and apoptosis were examined by Annexin-V/propidium iodide (PI) staining in flow cytometry. LMSCs and HCECs (10^5 cells/well) were plated in 6-well culture dishes. [Ru(bpy)3]^2+ and SPS in various concentrations (1 mM and 10 mM) were added to the cell culture medium. The cells were incubated for 1 hour at 37 °C. After the treatment with the solutions, the cells were collected and washed with PBS at 4 °C. The cells were resuspended in 1× binding buffer at a 1×10^5 cells/ml density. 100 μl of the cell suspension were labeled with 2.5 μl of fluorochrome-conjugated Annexin V and 5 μl of PI according to the manufacturer's protocol (BioLegend, San Diego, CA, USA) and analyzed by using a flow cytometer (Attune N. T Flow Cytometer, Thermo Fisher Scientific, Waltham, MA, USA).
Annexin V-FITC and propidium iodide staining provide sensitive outcomes for detecting cellular apoptosis. While annexin V-FITC binds on the surface of cells that undergo programmed cell death, PI detects necrotic or late apoptotic cells characterized by loss of plasma and nuclear membrane integrity. Cells treated with [Ru(bpy)3]^2+ and/or SPS for 1 hour were harvested after treatment and stained with Annexin V-FITC and PI.

bovine corneas [2] = assay: Rheological measurements of crosslinked corneas (time sweep); conditions: 2 mM riboflavin, UV-A 365 nm, after 30 min
Procedure: (§1) For biomechanical experiments, bovine corneas were used. First the corneal epithelia were removed with a scalpel blade and 8 mm central corneal buttons were isolated from bovine eyes with a trephine blade (Katena, Parsippany, NJ, USA). After that, corneal buttons separated into three different experimental groups: • Ruthenium (Ru)-Sodium persulfate (SPS)/visible light, • Riboflavin/UV-A light, and • Control groups.
(§2) [Ru(bpy)3]^2+ and SPS solution was prepared in PBS via dissolving Tris(2,2′-bipyridyl)dichlororuthenium(II) hexahydrate (544981, Sigma-Aldrich, MO, USA) and sodium persulfate (216232, Sigma-Aldrich, MO, USA). Ru-SPS solution was prepared in two different concentrations: 0.001 M (1 mM) and 0.0001 M (0.1 mM) was dropped on corneal buttons and the samples were incubated for 5 min for the samples in the Ru-SPS experimental group. Then all solutions were removed, and 430 nm visible light (3 mW/cm^2) was applied to the samples for 40 min. […]
Rheological measurements were carried out in time sweep mode with 1 Hz frequency, 1% strain using TA Instruments AR/DHR series rheometer (New Castle, DE) equipped with two different light sources: visible light ([…]) and UV-A light (λ=365 nm). […] Storage and loss moduli profiles were recorded as a function of time continuously for 40 min at ambient conditions. […]

bovine corneas [3] = assay: Enzymatic digestion (collagenase) test of corneas; conditions: 24 hours of digestion by collagenases
Procedure: as §1
as §2, with “min. To mimic the standard CXL corneal collagen crosslinking procedure for the riboflavin experimental group, 0.002 M (2 mM) riboflavin 5′-monophosphate solution (18167, Cayman Chemical, MI, USA) was dropped on corneal buttons and the samples were incubated for 5 min. Then riboflavin solution was removed, and 365 nm visible light (3 mW/cm^2) applied to the cornea samples for 40 min. No solution or light was applied to the corneas in the control group.” for “min.”

bovine corneas [4] = assay: UV & visible spectrophotometry of corneas; conditions: PBS, UV (300-400) and visible (400-800); different crosslinking procedures
Procedure: Optical transmission and absorption tests were performed on de-epithelized bovine corneas for the UV and visible light spectrum. Control and crosslinked corneas were submerged in PBS, and their optical transmission was assessed using a UV-Vis. Spectrometer (Edinburgh Instruments Spectrofluorometer FS5). Transmittance spectra (% T) were collected from 300 to 800 nm at 1 nm increments. […] The results are illustrated in FIGS. 7A-7B.

[5] = obtained from previous literature [15, 16]; cited from earlier work
bovine corneas [6] = assay: Osmotic stress (swelling) test; conditions: 15% dextran-500 PBS overnight, then three hours in distilled water
Procedure: as §1
as §2, with “min. To mimic the standard CXL corneal collagen crosslinking procedure for the riboflavin experimental group, 0.002 M (2 mM) riboflavin 5′-monophosphate solution (18167, Cayman Chemical, MI, USA) was dropped on corneal buttons and the samples were incubated for 5 min. Then riboflavin solution was removed, and 365 nm visible light (3 mW/cm^2) applied to the cornea samples for 40 min. No solution or light was applied to the corneas in the control group.” for “min.”

bovine corneas [7] = assay: Uniaxial stress-strain test of corneal strips
Procedure: as §1
[Ru(bpy)3]^2+ and SPS solution was prepared in PBS via dissolving Tris(2,2′-bipyridyl)dichlororuthenium(II) hexahydrate (544981, Sigma-Aldrich, MO, USA) and sodium persulfate (216232, Sigma-Aldrich, MO, USA). Ru-SPS solution was prepared in two different concentrations: 0.001 M (1 mM) and 0.0001 M (0.1 mM) was dropped on corneal buttons and the samples were incubated for 5 min for the samples in the Ru-SPS experimental group. Then all solutions were removed, and 430 nm visible light (3 mW/cm^2) was applied to the samples for 40 min. To mimic the standard CXL corneal collagen crosslinking procedure for the riboflavin experimental group, 0.002 M (2 mM) riboflavin 5′-monophosphate solution (18167, Cayman Chemical, MI, USA) was dropped on corneal buttons and the samples were incubated for 5 min. Then riboflavin solution was removed, and 365 nm visible light (3 mW/cm^2) applied to the cornea samples for 40 min. No solution or light was applied to the corneas in the control group.
The stress-strain test was performed on a full-thickness minus the epithelium corneal strips dissected from the bovine corneas. The mechanical properties of all the samples were determined using force and displacement measurements. The initial cross-sectional area and the corresponding force measurements of each test sample were used to calculate the engineering stress. The maximum displacement at the breakage point of each sample was used to estimate the change in the length of each sample. This change in the length was related nominally to the initial length of the corresponding test sample to calculate the engineering strain. The modulus of elasticity and the ultimate tensile strength of each sample was then estimated by the engineering stress-strain curves. The ultimate tensile strength was defined as the peak value of stress on the stress-strain curve before the breakage point of the sample when being stretched. The linear regression analysis between the zero point and the point that equals 70% of the maximum stress for each sample was used to compute the modulus of elasticity. The modulus of elasticity is a material-dependent property such that it depends upon the internal structure and the bond strength between the atoms of each sample. Therefore, the modulus of elasticity remained similar for one sample type; however, it differed for other sample types. […]

bovine corneas [8] = assay: Corneal optical transparency and Lambert-Beer penetration distance
Procedure: The standard protocol for corneal crosslinking can only be applied in cases with a corneal thickness above 400 μm. When applied to thinner corneas, UV-A beam reaches the corneal endothelial cells resulting in endothelial toxicity and corneal edema. For this purpose, the Lambert-Beer formula was applied for optical transmittance results of both photoinitiator solutions (FIG. 6C). Corneal light transmittance was then calculated with the Lambert-Beer formula: […]
In this formula, A represents the optical absorbance of the sample, ε represents the molar attenuation coefficient of the photoinitiator, c is the concentration of the photoinitiator, and l is the total optical path length of the light. For these calculations, molar attenuation coefficients for each photoinitiators (10066 M^−1 cm^−1 for riboflavin and 14,600 M^−1 cm^−1 for tris(2,2′-bipyridyl)ruthenium(II)) obtained from previous literature.[15, 16] […]
Corneal optical transparencies were measured in corresponding light wavelengths for each experimental group. For the 2 mM riboflavin-based crosslinked corneas, average optical transparency in 365 nm was measured as 0.713±0.222. In the same conditions, the average optical transparency for 1 mM ruthenium-based crosslinked corneas was measured as 0.724±0.050 in 430 nm light wavelength, which is correlated with the riboflavin-based CXL procedure. […]

Row | Compound | hardness / stiffness of cross-linked cornea (cornea) | depth of cross-linking effect (cornea; Rose Bengal/Green Light (532 nm)) | cytotoxicity influence on viability of cells [1] | cell death (Annexin V-FITC/PI) (LMSCs and HCECs) | average storage modulus (bovine corneas [2]) [kPa] | resistance to enzymatic digestion (bovine corneas [3]) | optical absorbance of corneas, change after crosslinking (bovine corneas [4]) | optical transmission of corneas, change after crosslinking (bovine corneas [4]) | molar attenuation coefficient [5] [M⁻¹ cm⁻¹] | swelling vs normal corneas (bovine corneas [6]) | healing time of corneal haze, in some eyes (cornea; riboflavin/UV-A) | stiffness compared to control (bovine corneas [7]; from modulus of elasticity) | increase of modulus of elasticity vs control (bovine corneas [7]; riboflavin-treated) | increase of ultimate tensile strength vs control (bovine corneas [7]; riboflavin-treated) | strain compared to control (bovine corneas [7]; stress-strain test) | average optical transparency (bovine corneas [8]; 2 mM riboflavin-based crosslinked corneas, 365 nm) | mean distance traveled in the bovine cornea (bovine corneas [8]; Lambert-Beer formula applied to optical transmittance results) [μm]
1 | O=C1OC2(c3cc(I)c(O)c(I)c3Oc3c2cc(I)c(O)c3I)c2c(Cl)c(Cl)c(Cl)c(Cl)c21 [Rose Bengal] | increased hardness | more superficial effect | – | – | – | – | – | – | – | – | – | – | – | – | – | – | –
2 | O=S(=O)([O-])OOS(=O)(=O)[O-].[Na+].[Na+] [SPS, sodium persulfate] | – | – | dose-dependent cytotoxicity | higher degree of cell death than ruthenium-SPS treated cells | – | – | – | – | – | – | – | – | – | – | – | – | –
3 | Cc1cc2nc3c(=O)[nH]c(=O)nc-3n(C[C@H](O)[C@H](O)[C@H](O)COP(=O)(O)O)c2cc1C [riboflavin, riboflavin 5′-monophosphate] | increased corneal stiffness | – | – | – | 92.88 | digested entirely after 24 hours | did not change significantly | did not change significantly | 10066 | less swelling | 6-12 months | overall increasing stiffness | approximately 16% | approximately 16% | decreasing strain trend | 0.713±0.222 | 719
